Like-named read-outs stand apart in the source and are kept apart here.
Target: T1, AChE from electric eel (Electrophorus electricus, UniProt O42275)
T1 construct: purchased Sigma (St. Louis, USA)
Experiment: Quantitative colorimetric microplate assay based on Ellman's method for AChE inhibitory activity
Type: biochemical
Conditions: for IC50: read-out: IC50, inhibition of AchE (converted)
Protocol: The tested concentrations of the samples ranged from 1.56 to 200 μg/mL. Based on the resulting curves, the IC50 values for AChE inhibition were calculated using the respective curves’ equations (Table 1).
Acetylthiocholine iodide (ATCI) and chelidonine were obtained from Fluka (Buchs, Switzerland). Fast Blue B salt (FBS) and silica gel 60 were from Merck (Darmstadt, Germany). The solvents MeOH, EtOAc, CH2Cl2, and CHCl3 were purchased from VWR (Vienna, Austria). Two different buffer systems were used (buffer A: 50 mM Tris-HCl, pH 7.9 containing 0.1% BSA; buffer B: 50 mM Tris-HCl, pH 7.9 containing 0.1 M NaCl and 0.02 M MgCl2·6H2O).
A quantitative colorimetric assay based on Ellman’s method was used to measure the AChE inhibitory activities of the substances. Briefly, in a 96-well plate, 25 μL of 15 mM ATCI, 125 μL of 3 mM DTNB in buffer B, 50 μL of buffer A, and 25 μL of the extract or the isolated substances (from 15.6 μg/mL to 2.0 mg/mL in 10% DMSO) were thoroughly mixed and the absorbance was read at 405 nm five times every 15 s. Finally, 25 μL of AChE (0.22 U/mL in buffer A) were added and the plate was incubated at 25°C for 10 minutes. Then the absorbance was measured again eight times every 15 s. A 10% DMSO solution was used as the negative control. To compensate for any increase in absorbance due to the color of the extracts or spontaneous hydrolysis of the substrate, the absorbance before the addition of the enzyme was subtracted from the absorbance after adding the enzyme. The assay was repeated three times for every concentration.

[1] = n=3, 25°C, 10 min incubation, tested 1.56 to 200 μg/mL
[2] = n=3, same values given in molar unit

T1 sequence (O42275 24-633): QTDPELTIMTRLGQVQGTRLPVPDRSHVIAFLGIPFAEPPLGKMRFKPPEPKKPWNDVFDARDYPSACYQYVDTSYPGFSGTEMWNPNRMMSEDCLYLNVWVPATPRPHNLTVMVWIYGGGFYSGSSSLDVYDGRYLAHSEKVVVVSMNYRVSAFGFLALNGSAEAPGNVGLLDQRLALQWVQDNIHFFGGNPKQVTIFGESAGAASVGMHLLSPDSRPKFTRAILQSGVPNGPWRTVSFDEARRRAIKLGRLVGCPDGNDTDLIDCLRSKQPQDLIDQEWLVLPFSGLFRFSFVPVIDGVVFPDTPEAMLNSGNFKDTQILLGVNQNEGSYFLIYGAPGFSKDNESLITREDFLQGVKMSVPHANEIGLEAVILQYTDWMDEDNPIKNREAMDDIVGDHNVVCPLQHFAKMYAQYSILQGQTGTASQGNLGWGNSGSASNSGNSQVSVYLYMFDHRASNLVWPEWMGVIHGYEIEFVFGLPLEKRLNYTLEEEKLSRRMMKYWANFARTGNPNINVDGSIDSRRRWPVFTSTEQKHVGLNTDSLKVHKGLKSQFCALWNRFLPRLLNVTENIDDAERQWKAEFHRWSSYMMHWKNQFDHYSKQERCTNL

Compound	AChE inhibitory activity (in words)	IC50 [1] [µM]	IC50 [2] [µM]	times more active than compounds 1, 2 and 4 (AChE inhibition) (comparison of IC50 values)
C=C[C@]1(C)CC[C@H]([C@@H](C)C(=O)[C@H](O)C=C(C)C)C12C(=O)Oc1cc(OC)ccc1C2=O (stereo partly drawn) [Compound 2, (2′S,5′R)-2′-ethenyl-5′-[(2R,4R)-4-hydroxy-6-methyl-3-oxohept-5-en-2-yl]-7-methoxy-2′-methyl-4H-spiro[chromene-3,1′-cyclopentane]-2,4-dione]	only low activities	236	237	–
CC(C)=CCC/C(C)=C/CC/C(C)=C/Cc1c(O)c2ccc(O)cc2oc1=O [Compound 4, 4,7-dihydroxy-3-[(2E,6E)-3,7,11-trimethyldodeca-2,6,10-trien-1-yl]-2H-chromen-2-one]	only low activities	201	201	–
CC(C)=CCC/C(C)=C/CC/C(C)=C/CCC(=O)c1ccc(O)cc1O [Compound 3, (4E,8E)-1-(2,4-dihydroxyphenyl)-5,9,13-trimethyltetradeca-4,8,12-trien-1-one]	–	23.4	23.5	about 10 times
C=C[C@]1(C)CC[C@@H](C(C)C(O)C(=O)C=C(C)C)C12C(=O)Oc1cc(OC)ccc1C2=O (stereo partly drawn) [Compound 1, (2′S,5′S)-2′-ethenyl-5′-(3hydroxy-6-methyl-4-oxohept-5-en-2-yl)-7-methoxy-2′-methyl-4H-spiro[chromene-3,1′-cyclopentane]-2,4-dione]	only low activities	181	181	–
